Assay results: the supplement of paper PMC4977894
± gives the standard deviation of the averaged measurements.

Key:
[1] = system: Homo sapiens (human subject panel, olfactory perception); assay: perceived odor intensity rating (rating 0-100); higher = stronger perceived smell
Procedure: (§1)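 Human olfactory psychophysics. 55 healthy subjects (after excluding 6 low performers) sniffed 1 mL of each odorant diluted in paraffin oil (vials, two dilutions per molecule, 20 molecules presented twice). Each subject rated intensity, pleasantness and familiarity on a 0-100 slider, starting at 50 and required to move. Ratings were given only when the subject reported detecting a smell; per-subject ratings are averaged over subjects.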

[2] = system: Homo sapiens (human subject panel, olfactory perception); assay: perceived odor familiarity rating (rating 0-100); higher = more familiar
Procedure: as §1

[3] = system: Homo sapiens (human subject panel, olfactory perception); assay: perceived odor pleasantness rating (rating 0-100); higher = more pleasant
Procedure: as §1

[4] = odor dilution in paraffin oil: 1/10
[5] = odor dilution in paraffin oil: 1/1,000
[6] = odor dilution in paraffin oil: 1/100,000
[7] = odor dilution in paraffin oil: 1/10,000,000

Row | Compound | perceived odor intensity rating [1, 4] | perceived odor intensity rating [1, 5] | perceived odor familiarity rating [2, 4] | perceived odor familiarity rating [2, 5] | perceived odor pleasantness rating [3, 4] | perceived odor pleasantness rating [3, 5] | perceived odor intensity rating [1, 6] | perceived odor familiarity rating [2, 6] | perceived odor pleasantness rating [3, 6] | perceived odor intensity rating [1, 7] | perceived odor familiarity rating [2, 7] | perceived odor pleasantness rating [3, 7]
1 | CCCCCCCCCC(C)=O [2-Undecanone] | 79.4 ± 22 | 31.9 ± 28 | 49.5 ± 32 | 39.6 ± 30 | 43.3 ± 32 | 50.4 ± 22 |  |  |  |  |  | 
2 | CC(=O)c1ccccn1 [2-acetyl pyridine] |  | 79.2 ± 20 |  | 66.9 ± 28 |  | 49.7 ± 28 | 74.3 ± 22 | 67.8 ± 29 | 53.6 ± 27 |  |  | 
3 | CCC(C)=O [2-butanone] |  | 33 ± 33 |  | 34.9 ± 32 |  | 43.3 ± 28 | 19.4 ± 26 | 27.4 ± 31 | 49.6 ± 29 |  |  | 
4 | CCCCCCCCC(C)=O [2-decanone] |  | 44.8 ± 30 |  | 44 ± 29 |  | 49.5 ± 25 | 24.6 ± 26 | 30.3 ± 23 | 51.2 ± 26 |  |  | 
5 | CCc1cnccn1 [2-ethyl pyrazine] |  | 80 ± 19 |  | 55.8 ± 34 |  | 37.2 ± 30 | 31.4 ± 25 | 34.8 ± 27 | 47 ± 21 |  |  | 
6 | CCCCC(CC)CO (stereo not given) [2-ethyl-1-hexanol] |  | 79.7 ± 19 |  | 42.1 ± 30 |  | 19.4 ± 22 | 51.2 ± 34 | 43.6 ± 31 | 25.9 ± 23 |  |  | 
7 | CCCCC(CC)COC(C)=O (stereo not given) [2-ethylhexyl acetate] |  | 44.4 ± 32 |  | 38.6 ± 29 |  | 42 ± 22 | 24.6 ± 31 | 32.7 ± 29 | 51.3 ± 22 |  |  | 
8 | CCc1ccccc1O [2-ethylphenol] |  | 83.3 ± 18 |  | 64.4 ± 28 |  | 29.2 ± 27 | 67.7 ± 27 | 51.6 ± 33 | 33.2 ± 24 |  |  | 
9 | CCCCCC(C)=O [2-heptanone] |  | 71.1 ± 22 |  | 52.7 ± 29 |  | 53.8 ± 25 | 25.4 ± 27 | 23.9 ± 22 | 51.9 ± 26 |  |  | 
10 | CCCCC(C)O (stereo not given) [2-hexanol] |  | 71.9 ± 24 |  | 58.2 ± 28 |  | 42.3 ± 24 | 47.8 ± 32 | 38.1 ± 29 | 42.1 ± 25 |  |  | 
11 | CCCCC(C)=O [2-hexanone] |  | 71.4 ± 25 |  | 57.6 ± 32 |  | 42.2 ± 24 | 25.5 ± 31 | 31.4 ± 27 | 48.6 ± 23 |  |  | 
12 | CCC/C=C/C=O [2-hexenal] |  | 67.4 ± 28 |  | 41.1 ± 33 |  | 30.9 ± 26 | 39.7 ± 29 | 43.1 ± 31 | 53.1 ± 26 |  |  | 
13 | COc1nccnc1CC(C)C [2-isobutyl-3-methoxypyrazine] |  | 80.6 ± 19 |  | 50.1 ± 31 |  | 31.2 ± 25 | 71.7 ± 27 | 57.7 ± 30 | 47.9 ± 26 |  |  | 
14 | CC(C)CO [2-methyl-1-propanol] |  | 42.5 ± 33 |  | 38.5 ± 34 |  | 37.4 ± 23 | 23.4 ± 23 | 35.4 ± 28 | 43.5 ± 21 |  |  | 
15 | CCCCCCC(C)=O [2-octanone] |  | 66.8 ± 26 |  | 51.9 ± 26 |  | 52.5 ± 25 | 20 ± 26 | 36.6 ± 25 | 52.2 ± 16 |  |  | 
16 | CCCC(C)O (stereo not given) [2-pentanol] |  | 50.2 ± 34 |  | 41.8 ± 30 |  | 35.5 ± 26 | 25.7 ± 23 | 38.9 ± 31 | 42.6 ± 21 |  |  | 
17 | OCCc1ccccc1 [2-phenylethanol] |  | 70 ± 26 |  | 61.9 ± 30 |  | 52.8 ± 30 | 59.6 ± 29 | 61.8 ± 29 | 63.1 ± 24 |  |  | 
18 | CCC(C)C1CCCCC1=O (stereo not given) [2-sec-Butylcyclohexanone] | 81.9 ± 17 | 56.8 ± 28 | 58.9 ± 32 | 44.6 ± 32 | 49.3 ± 29 | 51 ± 24 |  |  |  |  |  | 

Row | Compound | perceived odor intensity rating [1, 4] | perceived odor intensity rating [1, 5] | perceived odor familiarity rating [2, 4] | perceived odor familiarity rating [2, 5] | perceived odor pleasantness rating [3, 4] | perceived odor pleasantness rating [3, 5] | perceived odor intensity rating [1, 6] | perceived odor familiarity rating [2, 6] | perceived odor pleasantness rating [3, 6] | perceived odor intensity rating [1, 7] | perceived odor familiarity rating [2, 7] | perceived odor pleasantness rating [3, 7]
19 | COc1ccc(C(C)=O)cc1OC [3,4-Dimethoxyacetophenone] | 61.7 ± 26 | 26.5 ± 30 | 48.6 ± 30 | 35.9 ± 26 | 38.9 ± 26 | 51.4 ± 20 |  |  |  |  |  | 
20 | CC(C)CCCC(C)CCO (stereo not given) [3,7-Dimethyl-1-octanol] |  | 74.7 ± 22 |  | 57.6 ± 30 |  | 40.2 ± 28 | 24.2 ± 26 | 40.5 ± 26 | 43.8 ± 19 |  |  | 
21 | CC(C)=CCCC(C)=CC#N [3,7-Dimethyl-2,6-octadienenitrile] |  | 75.1 ± 22 |  | 67.1 ± 29 |  | 64.5 ± 28 | 46.2 ± 28 | 48.4 ± 34 | 60.3 ± 23 |  |  | 
22 | Cc1ccc(C(C)CC=O)o1 (stereo not given) [3-(5-Methyl-2-furyl)butanal] |  | 74.3 ± 22 |  | 41.5 ± 32 |  | 27.9 ± 24 | 30.8 ± 30 | 36 ± 31 | 41.6 ± 25 |  |  | 
23 | CSCCC=O [3-(Methylthio)propionaldehyde] |  |  |  |  |  |  | 79.6 ± 23 | 53.5 ± 33 | 23.9 ± 28 | 70.3 ± 25 | 49.9 ± 33 | 30.7 ± 26
24 | CSCCCN=C=S [3-(Methylthio)propyl isothiocyanate] |  | 82.7 ± 21 |  | 49.7 ± 32 |  | 25.2 ± 26 | 62.5 ± 29 | 47.6 ± 30 | 34.3 ± 27 |  |  | 
25 | CSCCCO [3-(methylthio)-1-propanol] |  |  |  |  |  |  | 82.2 ± 17 | 53.7 ± 31 | 22.9 ± 26 | 66.3 ± 26 | 43.2 ± 31 | 24.8 ± 22
26 | CC(=O)c1cc(C)oc1C [3-Acetyl-2,5-dimethylfuran] |  |  |  |  |  |  | 65.6 ± 24 | 44.9 ± 27 | 31.6 ± 22 | 15.4 ± 22 | 40.2 ± 32 | 48.9 ± 22
27 | CC(=O)c1cc(C)sc1C [3-Acetyl-2,5-dimethylthiophene] |  | 78.9 ± 20 |  | 47.4 ± 29 |  | 27.7 ± 26 | 19.4 ± 20 | 35.4 ± 30 | 49.4 ± 29 |  |  | 
28 | CC(=O)c1cccnc1 [3-Acetylpyridine] |  | 76.2 ± 23 |  | 48.2 ± 33 |  | 32.3 ± 29 | 24.6 ± 30 | 30 ± 31 | 44.8 ± 29 |  |  | 
29 | CCCCCC/C=C/C(C)=O [3-Decen-2-one] |  | 65.4 ± 25 |  | 42.5 ± 28 |  | 33.9 ± 22 | 21.6 ± 23 | 27.1 ± 21 | 46.8 ± 18 |  |  | 
30 | CC(C)CCS [3-Methyl-1-butanethiol] |  |  |  |  |  |  | 88.3 ± 14 | 54.6 ± 34 | 13.3 ± 18 | 54.1 ± 30 | 46.5 ± 29 | 32 ± 26
31 | CC1CCCC(=O)C1 (stereo not given) [3-Methylcyclohexanone] |  | 71 ± 28 |  | 53.2 ± 34 |  | 45.5 ± 30 | 39.3 ± 34 | 34 ± 27 | 41.7 ± 22 |  |  | 
32 | CCCCCC(O)CC (stereo not given) [3-Octanol] |  | 72 ± 23 |  | 45.5 ± 29 |  | 38.2 ± 25 | 26.9 ± 25 | 35.9 ± 28 | 49.5 ± 18 |  |  | 
33 | CCCCCC(CC)OC(C)=O (stereo not given) [3-Octyl Acetate] | 83.7 ± 17 | 39.7 ± 31 | 51.6 ± 32 | 48.9 ± 29 | 44.9 ± 31 | 59 ± 26 |  |  |  |  |  | 
34 | CCC(=O)CC [3-Pentanone] |  | 57.4 ± 35 |  | 53.3 ± 32 |  | 41.1 ± 26 | 33.3 ± 32 | 39.5 ± 29 | 45.4 ± 24 |  |  | 
35 | OCCCc1ccccc1 [3-Phenyl-1-propanol] |  | 63.3 ± 30 |  | 49.5 ± 34 |  | 48.6 ± 33 | 34.5 ± 32 | 36.7 ± 27 | 45.4 ± 25 |  |  | 
